Converted amounts (≈) assume the structure as drawn. Like-named read-outs stand apart in the source and are kept apart here.
Legend:
[1] = tested on: rapid-growing mycobacteria (RGM) isolates; assay: MIC (CLSI broth dilution), all RGM isolates; format: cell-based, nontuberculous mycobacteria; details: RGM clinical isolates, all species
[2] = tested on: Mycobacterium chelonae; assay: MIC by broth microdilution in CAMHB, clinical isolates; format: cell-based; details: 22 clinical isolates; read-out: MIC50
Experimental: (§1) A total of 24 clinical isolates of Mycobacterium abscessus, 22 clinical isolates of Mycobacterium chelonae and 20 clinical isolates of Mycobacterium fortuitum were tested in the study. The study also used the antibiotics tigecycline, doxycycline and amikacin for comparison purposes. […] Amikacin was dissolved in DMSO prior to freezing at −20° C. For susceptibility testing, stock solutions of antibiotic compounds were serially diluted in 50 μL of cation adjusted Mueller-Hinton broth (CAMHB) in polystryrene 96-well round-bottom microtiter plates. To each well, 50 μL of the appropriate mycobacterial cell suspension was added to yield a final concentration of about 1×10^5 CFU/mL. The inoculum used for each isolate was measured by titration in saline with Tween 80 and plating on MH agar. The Mycobacterium abscessus and Mycobacterium fortuitum titer plates were incubated at 37° C. in ambient air for 3-4 days and 5-7 days, respectively. The Mycobacterium chelonae titer plates were incubated at 30° C. in ambient air for 3-5 days. Each isolate was tested at least in duplicate. The MIC was defined as the lowest concentration of antimicrobial agent yielding no visible turbidity.

[3] = tested on: Mycobacterium abscessus; assay: as above; format: cell-based; details: Mycobacteroides abscessus; for MIC: read-out: MIC
Experimental: as §1

[4] = tested on: Mycobacterium fortuitum; assay: as above; format: cell-based; details: Mycolicibacterium fortuitum; for MIC: read-out: MIC
Experimental: as §1

## CN(C)c1cc(CNCC(C)(C)C)c(O)c2c1C[C@H]1C[C@H]3C(N(C)C)C(O)=C(C(N)=O)C(=O)[C@@]3(O)C(O)=C1C2=O (stereo partly drawn) [Omadacycline, (4aS,5aR,12aS)-4,7-bis(dimethylamino)-3,10,12,12a-tetrahydroxy-9-((neopentylamino)methyl)-1,11-dioxo-1,4,4a,5,5a,6,11,12a-octahydrotetracene-2-carboxamide]
[1]; read-out: MIC50
  MIC50: 0.25 µg/mL (≈ 0.449 µM)
[1]; read-out: MIC90
  MIC90: 0.5 µg/mL (≈ 0.898 µM)
[2]
  MIC50: 0.125 µg/mL (≈ 0.225 µM)
[3]; isolate No. 1, BB2
  MIC: 1 µg/mL (≈ 1.8 µM)
[3]; isolate No. 2, BB4
  MIC: 4 µg/mL (≈ 7.19 µM)
[3]; isolate No. 3, 5922
  MIC: 0.125 µg/mL (≈ 0.225 µM)
[3]; isolate No. 4, BB3
  MIC: 0.06 µg/mL (≈ 0.108 µM)
[3]; isolate No. 5, BB6
  MIC: 0.06 µg/mL (≈ 0.108 µM)
[3]; isolate No. 6, 5908
  MIC: 1 µg/mL (≈ 1.8 µM)
[3]; isolate No. 7, BB7
  MIC: 2 µg/mL (≈ 3.59 µM)
[3]; isolate No. 8, 6031
  MIC: 0.25 µg/mL (≈ 0.449 µM)
[3]; isolate No. 9, 5785
  MIC: 0.25 µg/mL (≈ 0.449 µM)
[3]; isolate No. 10, BB8
  MIC: 1 µg/mL (≈ 1.8 µM)
[3]; isolate No. 11, 6111
  MIC: 1 µg/mL (≈ 1.8 µM)
[3]; isolate No. 12, 6005
  MIC: 1 µg/mL (≈ 1.8 µM)
[3]; isolate No. 13, 5605
  MIC: 1 µg/mL (≈ 1.8 µM)
[3]; isolate No. 14, 5931
  MIC: 1 µg/mL (≈ 1.8 µM)
[3]; isolate No. 15, BB1
  MIC: 2 µg/mL (≈ 3.59 µM)
[3]; isolate No. 16, BB5
  MIC: 2 µg/mL (≈ 3.59 µM)
[3]; isolate No. 17, 5812
  MIC: 2 µg/mL (≈ 3.59 µM)
[3]; isolate No. 18, 5901
  MIC: 1 µg/mL (≈ 1.8 µM)
[3]; isolate No. 19, 5960
  MIC: 8 µg/mL (≈ 14.4 µM)
[3]; isolate No. 20, 6142
  MIC: 1 µg/mL (≈ 1.8 µM)
[3]; isolate No. 21, 5922
  MIC: 0.5 µg/mL (≈ 0.898 µM)
[3]; isolate No. 22, LT 949
  MIC: 1 µg/mL (≈ 1.8 µM)
[3]; isolate No. 23, 6025
  MIC: 1 µg/mL (≈ 1.8 µM)
[3]; isolate No. 24, 6153
  MIC: 2 µg/mL (≈ 3.59 µM)
[3]; 24 clinical isolates (tigecycline: subset N=14), read-out: MIC50
  MIC50: 1 µg/mL (≈ 1.8 µM)
[3]; 24 clinical isolates (tigecycline: subset N=14), read-out: MIC90
  MIC90: 2 µg/mL (≈ 3.59 µM)
[4]; isolate No. 1, 3349
  MIC: 0.25 µg/mL (≈ 0.449 µM)
[4]; isolate No. 2, 3499
  MIC: 0.03 µg/mL (≈ 0.0539 µM)
[4]; isolate No. 3, 2797
  MIC: 0.125 µg/mL (≈ 0.225 µM)
[4]; isolate No. 4, 32
  MIC: 0.25 µg/mL (≈ 0.449 µM)
[4]; isolate No. 5, 33
  MIC: 0.125 µg/mL (≈ 0.225 µM)
[4]; isolate No. 6, 3489
  MIC: 0.125 µg/mL (≈ 0.225 µM)
[4]; isolate No. 7, 3491
  MIC: 0.125 µg/mL (≈ 0.225 µM)
[4]; isolate No. 8, 54
  MIC: 0.06 µg/mL (≈ 0.108 µM)
[4]; isolate No. 9, 38
  MIC: 0.125 µg/mL (≈ 0.225 µM)
[4]; isolate No. 10, 36
  MIC: 0.125 µg/mL (≈ 0.225 µM)
[4]; isolate No. 11, 3480
  MIC: 0.25 µg/mL (≈ 0.449 µM)
[4]; isolate No. 12, 3126
  MIC: 0.125 µg/mL (≈ 0.225 µM)
[4]; isolate No. 13, 3579
  MIC: 0.25 µg/mL (≈ 0.449 µM)
[4]; isolate No. 14, 7484
  MIC: 0.5 µg/mL (≈ 0.898 µM)
[4]; isolate No. 15, 3488
  MIC: 0.5 µg/mL (≈ 0.898 µM)
[4]; isolate No. 16, 3276
  MIC: 0.25 µg/mL (≈ 0.449 µM)
[4]; isolate No. 17, 3442
  MIC: 1 µg/mL (≈ 1.8 µM)
[4]; isolate No. 18, 3316
  MIC: 0.125 µg/mL (≈ 0.225 µM)
[4]; isolate No. 19, 3490
  MIC: 0.25 µg/mL (≈ 0.449 µM)
[4]; isolate No. 20, 2491
  MIC: 1 µg/mL (≈ 1.8 µM)
[4]; 20 clinical isolates, read-out: MIC50
  MIC50: 0.125 µg/mL (≈ 0.225 µM)
[4]; 20 clinical isolates, read-out: MIC90
  MIC90: 0.5 µg/mL (≈ 0.898 µM)

Source: patent US20250332178A1, “METHODS OF TREATING MYCOBACTERIAL INFECTIONS USING TETRACYCLINE COMPOUNDS” (priority 2018, published 2025)
